Data from publication PMC12656546, “Enterohepatic Recirculation-Mediated Reabsorption of Aristolochic Acid I: Revealed by Toxicokinetics and Metabolite Identification in Rats” (Toxics, 2025).

Assays:
[1] = Qualitative analysis of AAI and metabolites in bile of bile duct-cannulated rats; assay type: in vivo, F344 rats; conditions: 30 mg/kg AAI oral, bile collected 0–3 h, 3–6 h, 6–9 h, 9–12 h, qualitative UHPLC-Q-Exactive
Protocol: Ten 6-week-old F344 rats were divided into a control group (n = 2) and a treatment group (n = 8), with equal numbers of males and females in each group. During the experiment, rats were fasted and had access to water ad libitum. Rats in the control group were administered with 0.5% CMC-Na suspension via gastric gavage. For the treatment group, rats were administered with 30 mg/kg of AAI by the same route. Rats underwent bile duct cannulation for bile sample collection. Bile samples were collected at consecutive intervals of 0–3 h, 3–6 h, 6–9 h and 9–12 h after administration.
For each bile sample, a 200 μL aliquot of bile was mixed with an equal volume of a methanol/acetonitrile (1:1, v/v) solution. After vortexing for 2 min, the mixture was centrifuged at 13,200 rpm for 10 min. The precipitate was discarded, and the supernatant was dried under nitrogen gas. The dried residue was reconstituted in 80 μL of methanol, vortexed for 2 min, and centrifuged at 13,200 rpm for 15 min. The resulting supernatant was used for further analysis.
Ultra-high-performance liquid chromatography (UHPLC) coupled with a Q-Exactive orbitrap mass spectrometer (Thermo Fisher Scientific, San Jose, CA, USA) was used to analyzed the metabolites of AAI in rat bile. An ACQUITY UPLC BEH C18 column (2.1 mm × 50 mm, 1.7 μm, Waters, Milford, MA, USA) was employed for chromatographic separation. The mobile phase consisted of water containing 5 mmol/L ammonium formate/0.1% formic acid (A) and acetonitrile (B).
Metabolites in bile samples were analyzed using electrospray ionization (ESI) in both positive and negative ion modes. The spray voltage was set at 3500 V for positive mode and 3000 V for negative mode. The ion transfer tube temperature was maintained at 350 °C with a vaporizer temperature of 300 °C. The sheath gas and auxiliary gas flow rates were 35 Arb and 10 Arb. Full-scan MS data were acquired at a resolution of 35,000 within the mass range of m/z 100–1200. For MS/MS analysis, data-dependent acquisition (DDA) was performed at a resolution of 17,500 using high-energy collision dissociation (HCD). Post-acquisition data was imported into Compound Discoverer 2.1 software to identify AAI metabolites. Blank matrices were processed alongside samples to exclude the background interferences.

[2] = system: Caco-2 monolayers; conditions: cited from earlier work

For `COc1cccc2c1cc([N+](=O)[O-])c1c(C(=O)O)cc3c(c12)OCO3` [AAI, Aristolochic acid I], the “detection in bile (biliary excretion)” value [1] is listed as “detected in bile collected during 0–3 h and 3–6 h intervals post-administration” and the “passive diffusion ability across Caco-2 monolayers” value [2] is listed as “moderate passive diffusion ability”.
